The values that follow come from patent publication US9415047B2, “Use of benzo five-membered nitrogen heterocyclic piperazine or piperidine derivatives” (Liaoning Emmy Biological Pharmaceutical Co., Ltd., priority 2012, dated 2016).

The term EC50 denotes the concentration giving half of the maximal effect. A higher EC50 goes with a need for much substance.

For assay [1], the system named is high kalium concentration constricted rabbit aorta. The experiment in a line: Relaxing effects on vascular smooth muscle constricted by high kalium concentration in vitro. To be noted: relaxation of rabbit aorta constricted by high kalium solution (K+ 60 mmol/L), mean±SEM, n=5; for EC50: Oryctolagus cuniculus. A digest of the protocol:
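Rabbit aortic rings pre-challenged with adrenaline (10^−5 mol/L), washed and re-equilibrated 60 min in K-H solution, then constricted with high-K+ solution; compounds added cumulatively over 1×10^−10–1×10^−2 mol/L depending on series. Relaxation expressed as % of maximal relaxation vs −log concentration; mean±SEM, n=5.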

The test system of assay [2] is NA constricted rabbit aorta. The experiment in a line: Relaxing effects on vascular smooth muscle constricted by noradrenaline (NA) in vitro. To be noted: relaxation of rabbit aorta constricted by noradrenaline (10^−5 mol/L), mean±SEM, n=5; for EC50: Oryctolagus cuniculus. How it is done: Adrenaline hydrochloride (AD) (10^−5 mol/L) was added into a bath tube to induce constriction, when maximal constriction was achieved, the sample was completely flushed, K-H solution was changed for every 20 min. Contents in the tube was balanced for 60 min, when baseline recovered to be stable, noradrenaline bitartrate (NA) (10^−5 mol/L) was added to induce constriction. When the later maximal constriction response was basically consistent with the former one, the prepared compound solutions were subsequently added, including compound II-84 to II-123 solutions (1×10^−10-1×10^−2 mol/L), compound II-124 to II-157 solutions (1×10^−10-1×10^−3 mol/L), to record the waveforms. Relaxing percentage of the compound was used as Y axis, maximal relaxation response was 100%, negative logarithm of different concentration was used as X axis, to draw dose effect curve (expressed in mean±SEM ( ? ), n=5).

In assay [3] the test system is AD constricted rabbit aorta. In words: Relaxing effects on vascular smooth muscle constricted by adrenaline hydrochloride (AD) in vitro. The settings on record: relaxation of rabbit aorta constricted by adrenaline (10^−5 mol/L), mean±SEM, n=5; for EC50: Oryctolagus cuniculus. A digest of the protocol:
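Rabbit aortic strips in K-H solution precontracted with adrenaline hydrochloride (10^−5 mol/L) after a reproducible second contraction; compounds added cumulatively over ranges from 1×10^−10 up to 1×10^−2 mol/L depending on the compound series. Relaxation expressed as % of maximal relaxation versus −log concentration, mean±SEM, n=5.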

SMILES strings stand for the structures.

As for `COc1ccccc1C1CCN(CCCCn2cnc3ccccc32)CC1` [II-112, N-(4-(1H-benzimidazoyl-1-yl)butyl)-4-(2-methoxylphenyl)piperidine], the results for the “−logEC50” value in assay [1] and in assay [3] were 3.38 ± 0.03 and 4.76 ± 0.03, respectively. The compound further had a 50% effective concentration (EC50) in assay [2] of 28.2 µM.

In the case of `c1ccc2c(c1)ncn2CCCCN1CCC(c2ccncc2)CC1` [II-119, N-(4-(1H-benzimidazoyl-1-yl)butyl)-4-(4-pyridyl)piperidine], the “−logEC50” value worked out at 3.26 ± 0.04 in assay [1] and 4.86 ± 0.04 in assay [3]. The midpoint of the response in assay [2], the EC50, lay at 21.9 µM.

`FC(F)(F)c1cccc(C2CCN(CCCCn3cnc4ccccc43)CC2)c1` [II-109, N-(4-(1H-benzimidazoyl-1-yl)butyl)-4-(3-trifluoromethylphenyl)piperidine]: the “−logEC50” value in assay [1] stood at 5.01 ± 0.04; in assay [3], 6.21 ± 0.04. The EC50 in assay [2] was 0.479 µM.

Regarding `c1cnc(C2CCN(CCCCn3cnc4ccccc43)CC2)nc1` [II-120, N-(4-(1H-benzimidazoyl-1-yl)butyl)-4-(2-pyrimidinyl)piperidine], in assay [1], the “−logEC50” value was 3.32 ± 0.02. Besides, the concentration giving a half-maximal response (EC50) in assay [2] was 30.2 µM; in assay [3] it was 19.1 µM.

Turning to `Cc1ccc2nnn(CCCN3CCC(c4noc5cc(F)ccc45)CC3)c2c1` [II-90, N-(3-(6-methyl-1H-benzotriazole-1-yl)propyl)-4-(3-(6-fluorobenzisoxazolyl))piperidine], the “−logEC50” value came to 4.28 ± 0.03 in assay [1] and 5.38 ± 0.03 in assay [3]. Besides, the half-maximal effective concentration (EC50) in assay [2] was 4.47 µM.

In the case of `N#Cc1ccc2nnn(CCCCN3CCC(c4cccc(C(F)(F)F)c4)CC3)c2c1` [II-115, N-(4-(6-cyano-1H-benzotriazole-1-yl)butyl)-4-(3-trifluoromethylphenyl)piperidine], the “−logEC50” value in assay [1] turned out to be 3.23 ± 0.02; in assay [3] it was 4.79 ± 0.02. The same compound showed a 50% effective concentration (EC50) in assay [2] of 29.5 µM.

For `N#Cc1ccc2cnn(CCCCN3CCC(c4noc5cc(F)ccc45)CC3)c2c1` [II-104, N-(4-(6-cyanobenzopyrazol)butyl)-4-(3-(6-fluorobenzisoxazolyl))piperidine], the concentration for a half-maximal effect (EC50) in assay [1] was 380 µM; in assay [2], 9.55 µM; in assay [3], 9.55 µM.

`O=Cc1ccc2nnn(CCCN3CCC(c4noc5cc(F)ccc45)CC3)c2c1` [II-92, N-(3-(6-formoxyl-1H-benzotriazole-1-yl)propyl)-4-(3-(6-fluorobenzisoxazolyl))piperidine]: the “−logEC50” value is given as 4.32 ± 0.04 in assay [1] and 5.56 ± 0.04 in assay [3]. In assay [2], the midpoint of the response, the EC50, lay at 1.86 µM.

Take `Cc1ccc2c(C3CCN(CCCn4nnc5ccccc54)CC3)noc2c1` [II-86, N-(3-(1H-benzotriazole-1-yl)propyl)-4-(3-(6-methylbenzisoxazolyl))piperidine]: the “−logEC50” value in assay [1] was found to be 4.09 ± 0.04; in assay [2], 5.26 ± 0.04; in assay [3], 5.45 ± 0.04.

As for `c1ccc2c(c1)nnn2OCCN1CCC(c2noc3ccccc23)CC1` [II-148], the EC50 is 55 µM in assay [1], 91.2 µM in assay [2] and 55 µM in assay [3].

On to `c1ccc2nc(C3CCN(CCCCn4nnc5ccccc54)CC3)cnc2c1` [II-123, N-(4-(1H-benzotriazole-1-yl)butyl)-4-(2-quinoxalinyl)piperidine], for which the “−logEC50” value in assay [1] was found to be 3.13 ± 0.04. The EC50 is 29.5 µM in assay [2] and 14.8 µM in assay [3].

On to `FC(F)(F)c1cccc(C2CCN(CCCCn3nnc4ccccc43)CC2)c1` [II-110, N-(4-(1H-benzotriazole-1-yl)butyl)-4-(3-trifluoromethylphenyl)piperidine], for which the “−logEC50” value in assay [1] was 5.12 ± 0.03; in assay [3], 6.36 ± 0.03. Moreover, the 50% effective concentration (EC50) in assay [2] was 0.355 µM.

`Fc1ccc2c(C3CCN(CCCn4ncc5ccccc54)CC3)noc2c1` [II-103, N-(3-(1-benzopyrazol)propyl)-4-(3-(6-fluorobenzisoxazolyl))piperidine]: the EC50 in assay [1] was 617 µM; in assay [2], 7.76 µM; in assay [3], 6.17 µM.

Turning to `COc1ccc2nnn(OCCN3CCC(c4noc5cc(F)ccc45)CC3)c2c1` [II-98, N-(2-(6-methoxylbenzotriazolyl)ethoxyl)-4-(3-(6-fluorobenzisoxazolyl))piperidine], the EC50 was 295 µM in assay [1], 49 µM in assay [2] and 93.3 µM in assay [3].

As for `Clc1cccc(C2CCN(CCCCn3nnc4ccccc43)CC2)c1` [II-108, N-(4-(1H-benzotriazole-1-yl)butyl)-4-(3-chlorophenyl)piperidine], the “−logEC50” value in assay [1] is recorded as 3.82 ± 0.03; in assay [3] it was 5.16 ± 0.03. The compound further showed a concentration giving a half-maximal response (EC50) in assay [2] of 5.37 µM.

Consider `COc1ccc2nnn(CCCN3CCC(c4noc5ccccc45)CC3)c2c1` [II-93, N-(3-(6-methoxylbenzotriazolyl)propyl)-4-(3-benzisoxazolyl)piperidine], for which the “−logEC50” value in assay [1] is 4.11 ± 0.03; in assay [3], 6.11 ± 0.07. The same compound showed an EC50 in assay [2] of 0.851 µM.

Regarding `Clc1cccc(C2CCN(CCCCn3cnc4ccccc43)CC2)c1` [II-107, N-(4-(1H-benzimidazoyl-1-yl)butyl)-4-(3-chlorophenyl)piperidine], the “−logEC50” value came to 3.69 ± 0.02 in assay [1] and 5.03 ± 0.02 in assay [3]. In addition, in assay [2], the response was half-maximal at 7.76 µM (EC50).

In the case of `c1ccc2c(c1)nnn2CCCCN1CCC(C2CCCCC2)CC1` [II-121, N-(4-(1H-benzotriazole-1-yl)butyl)-4-(4-cyclohexyl)piperidine], the “−logEC50” value in assay [1] was 3.14 ± 0.05. Besides, the figures for the EC50 in assay [2] and in assay [3] were 36.3 µM and 40.7 µM, respectively.

For the compound `FC(F)(F)c1cccc(C2CCN(CCCOn3cnc4ccccc43)CC2)c1` [II-117, N-(4-(1H-benzimidazole-1-yl)propoxyl)-4-(3-trifluoromethylphenyl)piperidine], the figures for the “−logEC50” value in assay [1] and in assay [3] were 4.17 ± 0.06 and 5.31 ± 0.06, respectively. Besides, the EC50 in assay [2] is 7.08 µM.

`FC(F)(F)c1cccc(C2CCN(CCCOn3nnc4ccccc43)CC2)c1` [II-116, N-(4-(1H-benzotriazole-1-yl)propoxyl)-4-(3-trifluoromethylphenyl)piperidine]: the “−logEC50” value in assay [1] turned out to be 4.22 ± 0.05; in assay [3], 5.56 ± 0.05. Besides, the 50% effective concentration (EC50) in assay [2] is 4.37 µM.

As for `Fc1ccc2c(C3CCN(CCCn4nnc5ccc(F)cc54)CC3)noc2c1` [II-137, N-(3-(6-fluoro-1H-benzotriazole-1-yl)propyl)-4-(3-(6-fluorobenzisoxazolyl))piperidine], the results for the EC50 in assay [2] and in assay [3] were 1.86 µM and 2.45 µM, respectively.

Regarding `O=Cc1ccc2nnn(CCCN3CCC(c4noc5cc(F)ccc45)CC3)c2c1` [II-141, N-(3-(6-formoxyl-1H-benzotriazole-1-yl)propyl)-4-(3-(6-fluorobenzisoxazolyl))piperidine], the “−logEC50” value in assay [2] is reported as 5.73 ± 0.04. In assay [3], this compound gave an EC50 of 2.75 µM.

For `FC(F)(F)c1cccc(C2CCN(CCCOn3nnc4ccccc43)CC2)c1` [II-133, N-(4-(1H-benzotriazole-1-yl)propoxyl)-4-(3-trifluoromethylphenyl)piperidine], the “−logEC50” value in assay [2] came to 5.36 ± 0.05. Further, in assay [3], it took 2.75 µM to reach a half-maximal effect (EC50).

As for `COc1ccc2c(C3CCN(CCCCn4nnc5ccc(C#N)cc54)CC3)noc2c1` [II-146, N-(4-(6-cyanobenzotriazolyl)butyl)-4-(3-(6-methoxylbenzisoxazolyl))piperidine], the “−logEC50” value in assay [2] was 5.09 ± 0.04. The compound also showed an EC50 in assay [3] of 5.89 µM.

As to `c1ccc2c(c1)ncn2CCCCN1CCC(c2ccncc2)CC1` [II-153, N-(4-(1H-benzimidazoyl-1-yl)butyl)-4-(4-pyridyl)piperidine], in assay [2], the “−logEC50” value turned out to be 4.66 ± 0.02. This compound also gave an EC50 in assay [3] of 13.8 µM.

Turning to `FC(F)(F)c1cccc(C2CCN(CCCCn3nnc4ccccc43)CC2)c1` [II-127, N-(4-(1H-benzotriazole-1-yl)butyl)-4-(3-trifluoromethylphenyl)piperidine], the “−logEC50” value in assay [2] is 6.45 ± 0.03. The same compound gave a concentration for a half-maximal effect (EC50) in assay [3] of 0.437 µM.

`Cc1ccc2c(C3CCN(CCCn4nnc5ccccc54)CC3)noc2c1` [II-135, N-(3-(1H-benzotriazole-1-yl)propyl)-4-(3-(6-methylbenzisoxazolyl))piperidine]: the half-maximal effective concentration (EC50) in assay [2] is 5.5 µM; in assay [3], 3.55 µM.

`Clc1cccc(C2CCN(CCCCn3nnc4ccccc43)CC2)c1` [II-125, N-(4-(1H-benzotriazole-1-yl)butyl)-4-(3-chlorophenyl)piperidine]: the “−logEC50” value in assay [2] was 5.27 ± 0.03. For the same compound, in assay [3], the concentration for a half-maximal effect (EC50) is 6.92 µM.

Take `c1ccc2c(C3CCN(CCCCn4nnc5ccccc54)CC3)cccc2c1` [II-156, N-(4-(1H-benzotriazole-1-yl)butyl)-4-(1-naphthyl)piperidine]: the “−logEC50” value in assay [2] stood at 4.34 ± 0.04; in assay [3], 4.22 ± 0.06.
